We go through 22 compounds from patent US8134007B2, “Pyridine derivatives” (Pfizer Inc., priority 2007, dated 2012).

Type in all cases: cell-based
One series addresses T1, Human Nav1.8 (Homo sapiens, UniProt Q9Y5Y9).
T1 construct: expressed in transfected cells; host or cells: HEK293
Nature of the series: VIPR Assay for Nav1.8 Compounds (FRET membrane potential, deltamethrin opener). The settings on record: VIPR FRET membrane potential assay, deltamethrin opener; average of replicates; read-out: Nav1.8 IC50.

For series [1], the system named is tetrodotoxin-sensitive voltage-gated sodium channels including NaV1.2, NaV1.3 and NaV1.7. Briefly: TTX-S Assay (VIPR, SHSY-5Y cell line, veratridine opener).
In another series the target is T2, Human Nav1.5 (Homo sapiens, UniProt Q14524).
T2 construct: expressed in transfected cells; host or cells: HEK293
T2 sequence (Q14524 whole entry): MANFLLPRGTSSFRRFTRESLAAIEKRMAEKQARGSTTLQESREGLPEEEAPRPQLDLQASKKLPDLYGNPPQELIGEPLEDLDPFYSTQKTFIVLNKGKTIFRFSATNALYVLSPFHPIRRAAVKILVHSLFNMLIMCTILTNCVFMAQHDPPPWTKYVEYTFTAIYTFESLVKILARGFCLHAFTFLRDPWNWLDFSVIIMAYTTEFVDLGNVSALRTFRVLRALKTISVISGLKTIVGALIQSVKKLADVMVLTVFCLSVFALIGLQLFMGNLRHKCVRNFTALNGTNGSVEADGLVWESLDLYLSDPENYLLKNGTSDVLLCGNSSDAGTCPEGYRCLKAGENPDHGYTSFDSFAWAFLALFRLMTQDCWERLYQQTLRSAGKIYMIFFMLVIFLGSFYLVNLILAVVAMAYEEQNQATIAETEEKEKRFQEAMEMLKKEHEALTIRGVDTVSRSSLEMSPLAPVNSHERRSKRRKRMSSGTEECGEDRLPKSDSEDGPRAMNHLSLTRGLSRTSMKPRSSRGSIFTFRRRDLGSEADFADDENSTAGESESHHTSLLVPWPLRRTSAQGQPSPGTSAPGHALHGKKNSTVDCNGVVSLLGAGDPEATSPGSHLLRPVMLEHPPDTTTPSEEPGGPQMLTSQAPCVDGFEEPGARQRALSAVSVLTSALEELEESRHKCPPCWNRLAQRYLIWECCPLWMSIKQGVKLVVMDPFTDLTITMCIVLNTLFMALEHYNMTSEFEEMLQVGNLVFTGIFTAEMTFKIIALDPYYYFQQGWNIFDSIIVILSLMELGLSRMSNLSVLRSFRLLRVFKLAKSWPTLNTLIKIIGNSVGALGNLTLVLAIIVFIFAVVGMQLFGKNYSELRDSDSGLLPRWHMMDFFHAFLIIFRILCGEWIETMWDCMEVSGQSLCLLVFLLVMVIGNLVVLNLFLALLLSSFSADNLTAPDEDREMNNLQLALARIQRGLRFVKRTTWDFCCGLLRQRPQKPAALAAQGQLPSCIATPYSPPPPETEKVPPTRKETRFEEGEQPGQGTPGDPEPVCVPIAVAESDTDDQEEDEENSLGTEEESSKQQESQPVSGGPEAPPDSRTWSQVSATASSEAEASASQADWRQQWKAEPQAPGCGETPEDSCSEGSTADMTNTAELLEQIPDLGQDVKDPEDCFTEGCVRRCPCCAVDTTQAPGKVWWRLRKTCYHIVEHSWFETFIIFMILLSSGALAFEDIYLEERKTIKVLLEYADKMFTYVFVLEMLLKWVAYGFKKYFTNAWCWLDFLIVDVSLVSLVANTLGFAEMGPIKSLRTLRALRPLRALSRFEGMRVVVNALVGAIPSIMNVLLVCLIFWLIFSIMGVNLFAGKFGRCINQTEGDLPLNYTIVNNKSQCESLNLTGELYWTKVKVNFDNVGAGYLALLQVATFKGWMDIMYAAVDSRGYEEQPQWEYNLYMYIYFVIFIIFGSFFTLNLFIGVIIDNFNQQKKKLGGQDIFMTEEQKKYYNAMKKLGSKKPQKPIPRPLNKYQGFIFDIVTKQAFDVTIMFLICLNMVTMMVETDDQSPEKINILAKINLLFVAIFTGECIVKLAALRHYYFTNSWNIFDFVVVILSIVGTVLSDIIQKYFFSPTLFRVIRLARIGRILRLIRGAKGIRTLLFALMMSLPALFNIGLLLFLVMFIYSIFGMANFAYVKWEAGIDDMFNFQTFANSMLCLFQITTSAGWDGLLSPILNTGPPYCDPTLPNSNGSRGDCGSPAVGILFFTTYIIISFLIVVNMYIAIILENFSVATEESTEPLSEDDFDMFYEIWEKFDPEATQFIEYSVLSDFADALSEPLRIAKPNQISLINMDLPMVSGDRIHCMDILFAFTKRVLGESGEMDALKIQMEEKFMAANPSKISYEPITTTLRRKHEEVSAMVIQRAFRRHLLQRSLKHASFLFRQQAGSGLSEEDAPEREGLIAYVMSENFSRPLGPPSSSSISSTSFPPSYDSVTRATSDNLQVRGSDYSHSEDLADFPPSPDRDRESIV
Nature of the series: Nav1.5 Assay (VIPR, HEK293 cells). The conditions noted are these: HEK293 cells expressing Human Nav1.5; average of replicates; read-out: Nav1.5 IC50. How it is done: The Nav1.5 assay is performed in HEK293 cells expressing Human Nav1.5 in the same way as the Nav1.8 assay.
Where replicate experiments were conducted resulting in multiple sets of data for a test compound, the data presented represent the average value from all replicate experiments.

The mark [2] stands for this setting: read-out: TTX-S IC50, veratridine 50 μM opener, average of replicates.

Where two headings read alike, the source gives them in different places.

T1 sequence (Q9Y5Y9 whole entry): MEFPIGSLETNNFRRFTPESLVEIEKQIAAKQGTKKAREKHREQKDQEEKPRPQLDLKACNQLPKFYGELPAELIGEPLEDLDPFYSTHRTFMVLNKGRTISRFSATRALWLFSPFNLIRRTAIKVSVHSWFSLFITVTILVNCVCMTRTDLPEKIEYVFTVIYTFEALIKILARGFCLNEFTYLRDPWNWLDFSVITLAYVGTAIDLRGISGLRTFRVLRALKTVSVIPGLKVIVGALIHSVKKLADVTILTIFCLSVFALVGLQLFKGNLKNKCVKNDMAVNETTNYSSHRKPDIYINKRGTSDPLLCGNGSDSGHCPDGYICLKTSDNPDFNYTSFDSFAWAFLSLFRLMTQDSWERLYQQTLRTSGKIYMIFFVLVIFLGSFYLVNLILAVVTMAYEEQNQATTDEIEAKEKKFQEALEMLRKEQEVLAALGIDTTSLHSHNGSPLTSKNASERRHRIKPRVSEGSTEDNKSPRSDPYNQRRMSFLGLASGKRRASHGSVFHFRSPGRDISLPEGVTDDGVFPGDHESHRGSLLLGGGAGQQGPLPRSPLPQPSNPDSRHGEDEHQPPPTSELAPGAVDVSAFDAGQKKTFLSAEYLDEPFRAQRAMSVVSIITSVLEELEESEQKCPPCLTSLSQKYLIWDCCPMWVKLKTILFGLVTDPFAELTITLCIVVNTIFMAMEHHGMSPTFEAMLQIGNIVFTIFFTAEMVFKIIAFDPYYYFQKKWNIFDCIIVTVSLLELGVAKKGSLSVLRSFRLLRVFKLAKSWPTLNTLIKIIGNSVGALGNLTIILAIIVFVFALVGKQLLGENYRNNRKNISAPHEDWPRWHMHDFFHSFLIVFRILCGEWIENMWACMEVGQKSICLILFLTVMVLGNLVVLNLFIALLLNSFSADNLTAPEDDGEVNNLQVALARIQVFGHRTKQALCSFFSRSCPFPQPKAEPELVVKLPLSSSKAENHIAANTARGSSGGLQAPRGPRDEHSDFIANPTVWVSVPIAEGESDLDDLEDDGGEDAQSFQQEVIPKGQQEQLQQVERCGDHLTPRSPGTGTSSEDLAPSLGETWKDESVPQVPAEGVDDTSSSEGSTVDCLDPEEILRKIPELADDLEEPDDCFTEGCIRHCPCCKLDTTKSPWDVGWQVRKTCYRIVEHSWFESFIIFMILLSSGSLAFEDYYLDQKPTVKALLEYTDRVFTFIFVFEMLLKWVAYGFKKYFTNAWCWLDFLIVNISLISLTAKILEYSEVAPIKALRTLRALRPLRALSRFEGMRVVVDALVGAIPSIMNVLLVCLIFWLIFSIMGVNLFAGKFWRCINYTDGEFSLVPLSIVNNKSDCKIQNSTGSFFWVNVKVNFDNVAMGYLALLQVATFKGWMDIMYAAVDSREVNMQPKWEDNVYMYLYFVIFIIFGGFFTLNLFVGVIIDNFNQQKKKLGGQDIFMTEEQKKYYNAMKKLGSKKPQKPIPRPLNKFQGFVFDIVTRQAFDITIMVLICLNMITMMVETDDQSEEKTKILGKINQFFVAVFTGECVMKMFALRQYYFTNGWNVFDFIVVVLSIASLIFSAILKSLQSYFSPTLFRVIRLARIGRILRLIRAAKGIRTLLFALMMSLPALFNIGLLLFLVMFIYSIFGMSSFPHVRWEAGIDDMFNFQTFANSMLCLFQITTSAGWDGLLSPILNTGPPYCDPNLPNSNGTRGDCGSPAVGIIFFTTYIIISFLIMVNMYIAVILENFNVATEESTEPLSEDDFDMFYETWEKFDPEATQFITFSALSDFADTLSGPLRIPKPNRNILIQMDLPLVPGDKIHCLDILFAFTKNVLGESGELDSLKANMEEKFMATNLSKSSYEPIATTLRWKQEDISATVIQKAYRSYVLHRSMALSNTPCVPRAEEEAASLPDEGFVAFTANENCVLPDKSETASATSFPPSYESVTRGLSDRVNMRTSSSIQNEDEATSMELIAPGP

A word on the IC50: it is the concentration that inhibits the measured activity by half. As to `CCn1nccc1C(=O)Nc1ccc(-c2cc(Cl)ccc2Cl)c(N)n1` [Example 56, N-[6-Amino-5-(2,5-dichlorophenyl)pyridin-2-yl]-1-ethyl-1H-pyrazole-5-carboxamide], the IC50 on Human Nav1.8 came to 2.4 µM; in series [1] (setting [2]), 8.1 µM; on Human Nav1.5 it was 17 µM.
For the compound `Cn1nccc1C(=O)Nc1ccc(-c2cc(OC(F)(F)F)ccc2Cl)c(N)n1` [Example 18, N-{6-Amino-5-[2-chloro-5-(trifluoromethoxy)phenyl]pyridin-2-yl}-1-methyl-1H-pyrazole-5-carboxamide], the 50% inhibitory concentration (IC50) stood at 1.6 µM on Human Nav1.8, 1.8 µM in series [1] (setting [2]) and 8.5 µM on Human Nav1.5.
As for `N#Cc1ccccc1C(=O)Nc1ccc(-c2ccccc2OC(F)(F)F)c(N)n1` [Example 107, N-{6-Amino-5-[2-(trifluoromethoxy)phenyl]pyridin-2-yl}-2-cyanobenzamide], the IC50 on Human Nav1.8 stood at 2.5 µM; in series [1] (setting [2]) it was 3.1 µM; at Human Nav1.5, 2.5 µM.
As to `COc1cc(Cl)c(Cl)c(-c2ccc(NC(=O)c3ccnn3C)nc2N)c1` [Example 7, N-[6-Amino-5-(2,3-dichloro-5-methoxyphenyl)pyridin-2-yl]-1-methyl-1H-pyrazole-5-carboxamide], the results for the IC50 (at Human Nav1.8; in series [1] (setting [2]); at Human Nav1.5) were 0.63 µM, 9.2 µM and 6.3 µM, respectively.
Taken in the same sequence, the figures for `Cn1nccc1C(=O)Nc1ccc(-c2ccccc2C(F)(F)F)c(N)n1` [Example 14, N-{6-Amino-5-[2-(trifluoromethyl)phenyl]pyridin-2-yl}-1-methyl-1H-pyrazole-5-carboxamide] were 8.4 µM, more than 32 µM and more than 32 µM.
Taken in the same sequence, the figures for `Cc1nocc1C(=O)Nc1ccc(-c2ccccc2OC(F)F)c(N)n1` [Example 38, N-{6-Amino-5-[2-(difluoromethoxy)phenyl]pyridin-2-yl}-3-methylisoxazole-4-carboxamide] were 2.6 µM, 26 µM and 25 µM.
In the same order, the values of `COc1ccc(Cl)c(-c2ccc(NC(=O)c3ccnn3C)nc2N)c1` [Example 5, N-[6-Amino-5-(2-chloro-5-methoxyphenyl)pyridin-2-yl]-1-methyl-1H-pyrazole-5-carboxamide] are 0.9 µM, more than 32 µM and more than 32 µM.
For `Cc1nocc1C(=O)Nc1ccc(-c2ccccc2OC(F)(F)F)c(N)n1` [Example 43, N-{6-Amino-5-[2-(trifluoromethoxy)phenyl]pyridin-2-yl}-3-methylisoxazole-4-carboxamide], the concentration for half-maximal inhibition (IC50) turned out to be 0.32 µM on Human Nav1.8, 10 µM in series [1] (setting [2]) and 12 µM at Human Nav1.5.
As to `COCc1cc(C(=O)Nc2ccc(-c3cc(F)ccc3Cl)c(N)n2)on1` [Example 96], the IC50 came out at 5.9 µM on Human Nav1.8, 12 µM in series [1] (setting [2]) and 7.1 µM on Human Nav1.5.
In the same order, the values of `Cn1nccc1C(=O)Nc1ccc(-c2cc(Cl)ccc2OC(F)(F)F)c(N)n1` [Example 16, N-{6-Amino-5-[5-chloro-2-(trifluoromethoxy)phenyl]pyridin-2-yl}-1-methyl-1H-pyrazole-5-carboxamide] are 1.9 µM, 9.6 µM and 11 µM.
Take `Cn1nccc1C(=O)Nc1ccc(-c2ccccc2OC(F)(F)F)c(N)n1` [Example 11, N-{6-Amino-5-[2-(trifluoromethoxy)pheny]pyridin-2-yl}-1-methyl-1H-pyrazole-5-carboxamide]: the IC50 was 2.4 µM on Human Nav1.8; 11 µM in series [1] (veratridine 50 μM opener, average of replicates, read-out: TTX-S IC50); 18 µM on Human Nav1.5.
For `Cn1nccc1C(=O)Nc1ccc(-c2cccc(Cl)c2Cl)c(N)n1` [Example 9, N-[6-Amino-5-(2,3-dichlorophenyl)pyridin-2-yl]-1-methyl-1H-pyrazole-5-carboxamide], the IC50 on Human Nav1.8 is 4.2 µM; in series [1] (setting [2]), more than 32 µM; on Human Nav1.5, 27 µM.
Take `Cn1nccc1C(=O)Nc1ccc(-c2cc(F)ccc2OC(F)(F)F)c(N)n1` [Example 116]: the IC50 on Human Nav1.8 was determined as 2.3 µM; in series [1] (setting [2]), 26 µM; at Human Nav1.5 it was 28 µM.
In the same order, the values of `Cc1nocc1C(=O)Nc1ccc(-c2cc(Cl)cc3c2OCCO3)c(N)n1` [Example 30, N-[6-Amino-5-(7-chloro-2,3-dihydro-1,4-benzodioxin-5-yl)pyridin-2-yl]-3-methylisoxazole-4-carboxamide] are 1.3 µM, 28 µM and 16 µM.
Consider `Cc1nocc1C(=O)Nc1ccc(-c2cc(F)ccc2O)c(N)n1` [Example 128], for which the IC50 was 15 µM on Human Nav1.8, more than 32 µM in series [1] (setting [2]) and more than 32 µM on Human Nav1.5.
As for `Cc1nocc1C(=O)Nc1ccc(-c2cc(Cl)cc(Cl)c2)c(N)n1` [Example 31, N-[6-Amino-5-(3,5-dichlorophenyl)pyridin-2-yl]-3-methylisoxazole-4-carboxamide], the IC50 on Human Nav1.8 turned out to be 3.9 µM; in series [1] (setting [2]), 20 µM; at Human Nav1.5, 30 µM.
Take `COc1cc(Cl)cc(-c2ccc(NC(=O)c3cnnn3C)nc2N)c1Cl` [Example 87, N-[6-Amino-5-(2,5-dichloro-3-methoxyphenyl)pyridin-2-yl]-1-methyl-1H-1,2,3-triazole-5-carboxamide]: the IC50 was found to be 6.1 µM on Human Nav1.8, 15 µM in series [1] (setting [2]) and 9.9 µM on Human Nav1.5.
As to `Cn1nncc1C(=O)Nc1ccc(-c2ccccc2OC(F)(F)F)c(N)n1` [Example 85, N-{6-Amino-5-[2-(trifluoromethoxy)phenyl]pyridin-2-yl}-1-methyl-1H-1,2,3-triazole-5-carboxamide], the IC50 is 7 µM on Human Nav1.8, 28 µM in series [1] (setting [2]) and 31 µM on Human Nav1.5.
In the case of `COc1cc(Cl)c(Cl)c(-c2ccc(NC(=O)c3nonc3C)nc2N)c1` [Example 48, N-[6-Amino-5-(2,3-dichloro-5-methoxyphenyl)pyridin-2-yl]-4-methyl-1,2,5-oxadiazole-3-carboxamide], the IC50 was determined as 0.76 µM on Human Nav1.8, 3.3 µM in series [1] (setting [2]) and 22 µM on Human Nav1.5.
As to `CCn1nccc1C(=O)Nc1ccc(-c2cc(OC)cc(Cl)c2Cl)c(N)n1` [Example 61, N-[6-Amino-5-(2,3-dichloro-5-methoxyphenyl)pyridin-2-yl]-1-ethyl-1H-pyrazole-5-carboxamide], the IC50 is 1.3 µM at Human Nav1.8, 9.7 µM in series [1] (setting [2]) and 9.7 µM on Human Nav1.5.
Turning to `Cn1nccc1C(=O)Nc1ccc(-c2ccccc2Cl)c(N)n1` [Example 1, N-[6-Amino-5-(2-chlorophenyl)pyridin-2-yl]-1-methyl-1H-pyrazole-5-carboxamide], the IC50 at Human Nav1.8 was 5.8 µM; in series [1] (setting [2]), more than 32 µM; at Human Nav1.5, 24 µM.
Taken in the same sequence, the figures for `Cc1nocc1C(=O)Nc1ccc(-c2ccc(F)cc2)c(N)n1` [Example 40, N-[6-Amino-5-(4-fluorophenyl)pyridin-2-yl]-3-methylisoxazole-4-carboxamide] were 20 µM, 30 µM and 31 µM.
